The numbers were not newly measured in patent publication US20070014855A1, “STABLE DESLORATADINE COMPOSITIONS” (priority 2005, published 2007), which cites them from elsewhere.

For `Clc1ccc2c(c1)CCc1cccnc1C2=C1CCNCC1` [Desloratadine, 8-chloro-6,11-dihydro-11-(4-piperidylidene)-5H-benzo[5,6]-cyclohepta[1,2-b]pyridine], the solubility in ethanol entry (ethanol) is “very soluble”. Also, the “solubility in propylene glycol” value (propylene glycol) is “very soluble”. Moreover, the solubility in water result (water) is given as “slightly soluble”.
